Reference: ChEMBL document CHEMBL1143760, “Stereoselective synthesis of beta-1-C-substituted 1,4-dideoxy-1,4-imino-D-galactitols and evaluation as UDP-galactopyranose mutase inhibitors” (Bioorg Med Chem, 2007)

Target: T1, UDP-galactopyranose mutase (Escherichia coli K-12) (UniProt P37747)
T1 sequence (whole entry): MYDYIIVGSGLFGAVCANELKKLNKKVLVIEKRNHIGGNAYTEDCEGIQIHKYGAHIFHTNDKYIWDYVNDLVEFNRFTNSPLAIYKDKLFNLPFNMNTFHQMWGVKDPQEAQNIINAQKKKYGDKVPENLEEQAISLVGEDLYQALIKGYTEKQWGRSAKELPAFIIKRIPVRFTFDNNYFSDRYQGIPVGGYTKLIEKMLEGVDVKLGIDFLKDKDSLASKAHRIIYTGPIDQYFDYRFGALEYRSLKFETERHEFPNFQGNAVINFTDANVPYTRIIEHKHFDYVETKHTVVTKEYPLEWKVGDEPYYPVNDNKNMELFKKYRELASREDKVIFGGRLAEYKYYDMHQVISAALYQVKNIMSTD
Experiment: Inhibition of Escherichia coli UDP galactopyranose mutase at 25 mM

inhibition [%] | SMILES
< 50 | O=C1CC[C@H]2[C@H](O)[C@@H](O)[C@H]([C@H](O)CO)N12
< 50 | CCOC(=O)CC[C@@H]1N[C@@H]([C@H](O)CO)[C@H](O)[C@H]1O

SMILES | inhibition [%]
OC[C@@H](O)[C@H]1[C@H](O)[C@@H](O)[C@@H]2CCCN12 | < 50
